Target: human PCSK9 (Homo sapiens, UniProt Q8NBP7)
Assay: PCSK9 ligand binding assay (TR-FRET): interference with binding of human PCSK9 to human LDLR
Settings: for IC50: Human PCSK9 Alexa Fluor 647 / Human LDLR extracellular domain-Europium Kryptate; for Max % inhibition: efficacy (Amax), 100% = 1 uM unlabeled human PCSK9, 0% = DMSO
Outline: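 Read-out was TR-FRET ratio (665 nm over 615 nm, 330 nm excitation) between Alexa Fluor 647-human PCSK9 (16 nM added) and Europium Kryptate-human LDLR ectodomain (4 nM added). Compound and PCSK9 were mixed 30 min before LDLR, then incubated 2 h. Inhibition was normalised to DMSO and unlabelled-PCSK9 controls, giving IC50 and Amax.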

human PCSK9, sequence (Q8NBP7 153-692): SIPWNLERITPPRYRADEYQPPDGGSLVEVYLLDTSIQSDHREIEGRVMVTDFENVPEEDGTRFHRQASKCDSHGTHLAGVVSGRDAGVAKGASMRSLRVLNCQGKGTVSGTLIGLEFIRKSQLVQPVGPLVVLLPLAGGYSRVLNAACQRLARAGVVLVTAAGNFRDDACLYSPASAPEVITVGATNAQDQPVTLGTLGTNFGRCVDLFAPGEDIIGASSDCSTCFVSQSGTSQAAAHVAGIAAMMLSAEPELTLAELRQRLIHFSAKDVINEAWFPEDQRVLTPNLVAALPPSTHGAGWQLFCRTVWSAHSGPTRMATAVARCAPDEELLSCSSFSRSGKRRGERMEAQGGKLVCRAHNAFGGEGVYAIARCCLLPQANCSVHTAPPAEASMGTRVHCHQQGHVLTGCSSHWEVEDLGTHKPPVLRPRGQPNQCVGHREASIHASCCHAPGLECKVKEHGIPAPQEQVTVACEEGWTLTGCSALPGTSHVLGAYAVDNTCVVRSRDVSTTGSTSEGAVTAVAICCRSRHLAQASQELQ
human PCSK9, sequence (Q8NBP7 31-152 partner limits assumed): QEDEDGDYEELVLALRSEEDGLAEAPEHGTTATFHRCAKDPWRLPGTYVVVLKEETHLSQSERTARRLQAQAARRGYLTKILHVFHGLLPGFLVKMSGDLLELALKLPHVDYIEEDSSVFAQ

Compound | IC50 | Max % inhibition
CC[C@@H]1CC(=O)N(Cc2c(F)cc(Cl)cc2Oc2ccc(-c3cnc(CN(C)C)n3C)cc2)[C@@H](C)C(=O)N[C@@H](COC)C(=O)N[C@@]2(Cc3ccc(Cl)cc3)CCCN(C2)C1=O [Compound 63] | 851 pM | 117.9%
C[C@H]1C(=O)N[C@@H](CO)C(=O)N[C@@]2(Cc3ccc(Cl)cc3)CCCN(C2)C(=O)[C@H](CC(F)(F)F)CC(=O)N1Cc1c(F)cc(Cl)cc1Oc1ccc(-c2cnc(CNC3CCC3)n2C)cc1 [Compound 5, (3S, 7S, 10S, 13R)-6-(4-chloro-2-(4-(2-((cyclobutylamino)methyl)-1-methyl-1H-imidazol-5-yl)phenoxy)-6-fluorobenzyl)-13-(4-chlorobenzyl)-10-(hydroxymethyl)-7-methyl-3-(2,2,2-trifluoroethyl)-1,6,9,12-tetraazabicyclo[11.3.1]heptadecane-2,5,8,11-tetraone] | 400 pM | 101.9%
COC[C@@H]1NC(=O)[C@H](C)N(Cc2c(F)cc(Cl)cc2Oc2ccc(-c3cnc(CNC4CCC4)n3C)cc2)C(=O)C[C@@H](CC(F)(F)F)C(=O)N2CCC[C@@](Cc3ccc(Cl)cc3)(C2)NC1=O [Compound 45, (3S,7S,10S,13R)-6-(4-Chloro-2-(4-(2-((cyclobutylamino)methyl)-1-methyl-1H-imidazol-5-yl)phenoxy)-6-fluorobenzyl)-13-(4-chlorobenzyl)-10-(methoxymethyl)-7-methyl-3-(2,2,2-trifluoroethyl)-1,6,9,12-tetraazabicyclo[11.3.1]heptadecane-2,5,8,11-tetraone] | 816 pM | 103.7%
C[C@H]1C(=O)N[C@@H](CO)C(=O)N[C@@]2(Cc3ccc(Cl)cc3)CCCN(C2)C(=O)[C@H](CC(F)(F)F)CC(=O)N1Cc1c(F)cc(Cl)cc1Oc1ccc(-c2cnc(CN(C)C3CCC3)n2C)cc1 [Compound 139, (3S, 7S, 10S, 13R)-6-(4-chloro-2-(4-(2-((cyclobutyl(methyl)amino)methyl)-1-methyl-1H-imidazol-5-yl)phenoxy)-6-fluorobenzyl)-13-(4-chlorobenzyl)-10-(hydroxymethyl)-7-methyl-3-(2,2,2-trifluoroethyl)-1,6,9,12-tetraazabicyclo[11.3.1]heptadecane-2,5,8,11-tetraone] | 150 pM | 113.0%
C[C@H]1C(=O)N[C@@H](CO)C(=O)N[C@@]2(Cc3ccc(Cl)cc3)CCCN(C2)C(=O)[C@H]([C@@H]2CCc3ccccc32)CC(=O)N1Cc1ccc(Oc2ccc(-c3cnc(CN(C)C)n3C)cc2)cc1F [Compound 123] | 346000 pM | 84.4%
COC[C@@H]1NC(=O)[C@H](C)N(Cc2c(F)cc(Cl)cc2Oc2ccc(-c3cnc(CN(C)C)n3C)nc2)C(=O)C[C@@H](C2CC(F)(F)C2)C(=O)N2CCC[C@@](Cc3ccc(Cl)cc3)(C2)N(C)C1=O [Compound 171] | 1030 pM | 107.8%
C[C@H]1C(=O)N[C@@H](CO)C(=O)N[C@@]2(Cc3ccc(Cl)cc3)CCCN(C2)C(=O)[C@H](CC2CC2)CC(=O)N1Cc1c(F)cc(Cl)cc1Oc1ccc(-c2cnc(CN(C)C)n2C)cc1 [Compound 145, (3R, 7S, 10S, 13R)-6-(4-chloro-2-(4-(2-((dimethylamino)methyl)-1-methyl-1H-imidazol-5-yl)phenoxy)-6-fluorobenzyl)-13-(4-chlorobenzyl)-3-(cyclopropylmethyl)-10-(hydroxymethyl)-7-methyl-1,6,9,12-tetraazabicyclo[11.3.1]heptadecane-2,5,8,11-tetraone] | 950 pM | 112.3%
COC[C@@H]1NC(=O)[C@H](C)N(Cc2ccc(Cl)cc2Oc2ccc(-c3cnc(CN(C)C)n3C)cc2)C(=O)C[C@@H](CC(F)(F)F)C(=O)N2CCC[C@@](Cc3ccc(Cl)cc3)(C2)NC1=O [Compound 2, (3S, 7S, 10S, 13R)-6-(4-chloro-2-(4-(2-((dimethylamino)methyl)-1-methyl-1H-imidazol-5-yl)phenoxy)benzyl)-13-(4-chlorobenzyl)-10-(methoxymethyl)-7-methyl-3-(2,2,2-trifluoroethyl)-1,6,9,12-tetraazabicyclo[11.3.1]heptadecane-2,5,8,11-tetraone] | 847 pM | 112.5%

The remaining lines, values ahead:

IC50 | Max % inhibition | Compound
820 pM | 97.0% | C[C@H]1C(=O)N[C@@H](CO)C(=O)N[C@@]2(Cc3ccc(Cl)cc3)CCCN(C2)C(=O)[C@H](Cc2cccnc2)CC(=O)N1Cc1ccc(Cl)cc1Oc1ccc(-c2cnc(CN3CCOCC3)n2C)cc1.Cl [Compound 47, (3R, 7S, 10S, 13R)-6-(4-chloro-2-(4-(1-methyl-2-(morpholinomethyl)-1H-imidazol-5-yl)phenoxy)benzyl)-13-(4-chlorobenzyl)-10-(hydroxymethyl)-7-methyl-3-(pyridin-3-ylmethyl)-1,6,9,12-tetraazabicyclo[11.3.1]heptadecane-2,5,8,11-tetraone]
7830 pM | 105.6% | C[C@@H](c1ccccc1)[C@@H]1CC(=O)N(Cc2ccc(Cl)cc2Oc2ccc(-c3cnc(CN4CCCC4)n3C)cc2)[C@@H](C)C(=O)N[C@@H](CO)C(=O)N(C)[C@H](Cc2ccc(Cl)cc2)CN(C)C1=O.Cl [Compound 107, (2S, 5S, 8R, 12S)-1-(4-chloro-2-(4-(1-methyl-2-(pyrrolidin-1-ylmethyl)-1H-imidazol-5-yl)phenoxy)benzyl)-8-(4-chlorobenzyl)-5-(hydroxymethyl)-2,7,10-trimethyl-12-((R)-1-phenylethyl)-1,4,7,10-tetraazacyclotetradecane-3,6,11,14-tetraone]
556 pM | 105.9% | Cc1cccc(C[C@@H]2CC(=O)N(Cc3ccc(Cl)cc3Oc3ccc(-c4cnc(CN(C)C)n4C)cc3)[C@@H](C)C(=O)N[C@@H](CO)C(=O)N[C@@]3(Cc4ccc(Cl)cc4)CCCN(C3)C2=O)n1 [Compound 41, (3R, 7S, 10S, 13R)-6-(4-chloro-2-(4-(2-((dimethylamino)methyl)-1-methyl-1H-imidazol-5-yl)phenoxy)benzyl)-13-(4-chlorobenzyl)-10-(hydroxymethyl)-7-methyl-3-((6-methylpyridin-2-yl)methyl)-1,6,9,12-tetraazabicyclo[11.3.1]heptadecane-2,5,8,11-tetraone]
450 pM | 105.3% | C[C@H]1C(=O)N[C@@H](CO)C(=O)N[C@@]2(Cc3ccc(Cl)cc3)CCCN(C2)C(=O)[C@H](Cc2cccnc2)CC(=O)N1Cc1ccc(Cl)cc1Oc1ccc(-c2cnc(CN(C)C)n2C)cc1.Cl [Compound 19, (3R,7S,10S,13R)-6-(4-chloro-2-(4-(2-((dimethylamino)methyl)-1-methyl-1H-imidazol-5-yl)phenoxy)benzyl)-13-(4-chlorobenzyl)-10-(hydroxymethyl)-7-methyl-3-(pyridin-3-ylmethyl)-1,6,9,12-tetraazabicyclo[11.3.1]heptadecane-2,5,8,11-tetraone hydrochloride]
1400 pM | 103.0% | C[C@H]1C[C@H]([C@@H]2CC(=O)N(Cc3ccc(Cl)cc3Oc3ccc(-c4cnc(CN5CCCC5)n4C)cc3)[C@@H](C)C(=O)N[C@@H](CO)C(=O)N(C)[C@H](Cc3ccc(Cl)cc3)CN(C)C2=O)c2ccccc21.Cl [Compound 93, (2S, 5S, 8R, 12S)-1-(4-chloro-2-(4-(1-methyl-2-(pyrrolidin-1-ylmethyl)-1H-imidazol-5-yl)phenoxy)benzyl)-8-(4-chlorobenzyl)-5-(hydroxymethyl)-2,7,10-trimethyl-12-((1R, 3S)-3-methyl-2,3-dihydro-1H-inden-1-yl)-1,4,7,10-tetraazacyclotetradecane-3,6,11,14-tetraone]
447 pM | 105.8% | C[C@H]1C(=O)N[C@@H](CO)C(=O)N(C)[C@@]2(Cc3ccc(Cl)cc3)CCCN(C2)C(=O)[C@H](Cc2ccccn2)CC(=O)N1Cc1c(F)cc(Cl)cc1Oc1ccc(-c2cnc(CN(C)C)n2C)cc1 [Compound 32, (3R,7S,10S,13R)-6-(4-Chloro-2-(4-(2-((dimethylamino)methyl)-1-methyl-1H-imidazol-5-yl)phenoxy)-6-fluorobenzyl)-13-(4-chlorobenzyl)-10-(hydroxymethyl)-7,12-dimethyl-3-(pyridin-2-ylmethyl)-1,6,9,12-tetraazabicyclo[11.3.1]heptadecane-2,5,8,11-tetraone]
383 pM | 113.2% | COC[C@@H]1NC(=O)[C@H](C)N(Cc2c(F)cc(Cl)cc2Oc2ccc(-n3cnc(CN4CCCC4)c3C)cc2)C(=O)C[C@@H](Cc2ccccc2)C(=O)N2CCC[C@@](Cc3ccc(Cl)cc3)(C2)NC1=O [Compound 39, (3R, 7S, 10S, 13R)-3-benzyl-6-(4-chloro-2-fluoro-6-(4-(5-methyl-4-(pyrrolidin-1-ylmethyl)-1H-imidazol-1-yl)phenoxy)benzyl)-13-(4-chlorobenzyl)-10-(methoxymethyl)-7-methyl-1,6,9,12-tetraazabicyclo[11.3.1]heptadecane-2,5,8,11-tetraone]
1840 pM | 69.1% | CCOCCOCCOCc1ncc(-c2ccc(Oc3cc(Cl)ccc3CN3C(=O)N[C@@H](Cc4ccccc4)C(=O)N4CCC[C@@](Cc5ccc(Cl)cc5)(C4)NC(=O)[C@H](CO)NC(=O)[C@@H]3C)cc2)n1C.Cl [Compound 104]
8520 pM | 105.1% | C[C@H]1C(=O)N[C@@H](CO)C(=O)N(C)[C@H](Cc2ccc(Cl)cc2)CN(C)C(=O)[C@H](Cc2ccccc2)CC(=O)N1Cc1ccc(Cl)cc1Oc1cc(F)c(-c2cnc(CN3CCCC3)n2C)c(F)c1.Cl [Compound 106, (2S, 5S, 8R, 12R)-12-benzyl-1-(4-chloro-2-(3,5-difluoro-4-(1-methyl-2-(pyrrolidin-1-ylmethyl)-1H-imidazol-5-yl)phenoxy)benzyl)-8-(4-chlorobenzyl)-5-(hydroxymethyl)-2,7,10-trimethyl-1,4,7,10-tetraazacyclotetradecane-3,6,11,14-tetraone]
